Read-outs that look alike come from different tables or passages of the source.
Legend:
Test in all cases: Greenhouse test, pre-emergence treatment
[1] = test system: IPOHE; assay type: in vivo, Ipomoea hederacea; settings: Ipomoea hederacea, 480 h, 50 g ai/ha, 20 DAT, read-out: observed % activity
Source text: (§1) The culture containers used were plastic flowerpots containing loamy sand with approximately 3.0% of humus as the substrate. The seeds of the test plants were sown separately for each species.
(§2) For the pre-emergence treatment, the active ingredients, which had been suspended or emulsified in water, were applied directly after sowing by means of finely distributing nozzles. The containers were irrigated gently to promote germination and growth and subsequently covered with transparent plastic hoods until the plants had rooted. This cover caused uniform germination of the test plants, unless this had been impaired by the active ingredients.
(§3) Depending on the species, the plants were kept at 10-25° C. or 20-35° C., respectively.
(§4) The test period extended over 2 to 4 weeks. During this time, the plants were tended, and their response to the individual treatments was evaluated.
(§5) Evaluation was carried out using a scale from 0 to 100. 100 means no emergence of the plants, or complete destruction of at least the aerial moieties, and 0 means no damage, or normal course of growth. A moderate herbicidal activity is given at values of at least 60, a good herbicidal activity is given at values of at least 70, and a very good herbicidal activity is given at values of at least 85.
(§6) The respective stated components a and b, and if appropriate, c were formulated as a 10% by weight strength emulsion concentrate and, with addition of the amount of solvent system, introduced into the spray liquor used for applying the active compound.
(§7) In the examples, the solvent used was water.
(§8) In the examples below, using the method of S. R. Colby (1967) “Calculating synergistic and antagonistic responses of herbicide combinations”, Weeds 15, p. 22ff., the value E, which is expected if the activity of the individual active compounds is only additive, was calculated. E=X+Y−(X·Y/100) where • X=percent activity using active compound a at an application rate A; • Y=percent activity using active compound b at an application rate B; • E=expected activity (in %) by a+b at application rates A+B.
(§9) If the value found experimentally is higher than the value E calculated according to Colby, a synergistic effect is present.

[2] = test system: ANTAR; assay type: in vivo; settings: Anthemis arvensis, 480 h, 20 DAT, read-out: observed % activity
Source text: as §1, §2, §3, §4, §5, §6, §7, §8, §9

[3] = test system: GERPU; assay type: in vivo, Geranium pusillum; settings: Geranium pusillum, pre-emergence, 480 h
Source text: as §1, §2, §3, §4, §5, §6, §7, §8, §9

[4] = test system: GALAP; assay type: in vivo, Galium aparine; settings: Galium aparine, pre-emergence, 480 h
Source text: as §1, §2, §3, §4, §5, §6, §7, §8, §9

[5] = test system: POLCO; assay type: in vivo, Polygonum convolvulus; settings: pre-emergence
Source text: as §1, §2, §3, §4, §5, §6, §7, §8, §9

[6] = test system: EPHHL; assay type: in vivo, Euphorbia heterophylla; settings: Euphorbia heterophylla, pre-emergence, 480 h
Source text: as §1, §2, §3, §4, §5, §6, §7, §8, §9

[7] = test system: COMBE; assay type: in vivo, Commelina benghalensis; settings: Commelina benghalensis, pre-emergence, 480 h
Source text: as §1, §2, §3, §4, §5, §6, §7, §8, §9

[8] = test system: CENCY; assay type: in vivo; settings: 480 h, individual, read-out: observed % activity 20 DAT
[9] = test system: KCHSC; assay type: in vivo, Kochia scoparia; settings: Bassia scoparia, pre-emergence, 480 h
Source text: as §1, §2, §3, §4, §5, §6, §7, §8, §9

[10] = test system: ABUTH; assay type: in vivo, Abutilon theophrasti; settings: Abutilon theophrasti, 480 h
Source text: as §1, §2, §3, §4, §5, §6, §7, §8, §9

[11] = test system: SIDRH; assay type: in vivo, Sida rhombifolia
Source text: as §1, §2, §3, §4, §5, §6, §7, §8, §9

[12] = 25 g ai/ha, 20 DAT, read-out: observed % activity
[13] = 50 g ai/ha, 20 DAT, read-out: observed % activity
[14] = 6 g ai/ha, 20 DAT, read-out: observed % activity
[15] = 12 g ai/ha, 20 DAT, read-out: observed % activity

In the case of `CS(=O)(=O)c1ccc(C(=O)C2C(=O)CCCC2=O)c([N+](=O)[O-])c1` [Mesotrione, mesotrione], the inhibition at 50 g/ha [1] is reported as 30%, the inhibition at 25 g/ha ([2]; 25 g ai/ha) is reported as 85% and the inhibition at 50 g/ha ([2]; 50 g ai/ha) is reported as 95%. The inhibition at 25 g/ha [3, 12] was 0%, the inhibition at 50 g/ha [3, 13] was 0% and the inhibition at 25 g/ha ([3]; GERPU, individual, use rate 25 g ai/ha, read-out: observed % activity 20 DAT) was 70%. The inhibition at 50 g/ha [4, 13] was 75%, the inhibition at 25 g/ha ([4]; GALAP, individual, use rate 25 g ai/ha, read-out: observed % activity 20 DAT) was 65% and the inhibition at 50 g/ha ([4]; GALAP, individual, use rate 50 g ai/ha, read-out: observed % activity 20 DAT) was 80%. It also gave an inhibition at 25 g/ha ([5]; Fallopia convolvulus, 480 h, 25 g ai/ha, 20 DAT, read-out: observed % activity) of 20%, an inhibition at 50 g/ha ([5]; Fallopia convolvulus, 480 h, 50 g ai/ha, 20 DAT, read-out: observed % activity) of 30% and an inhibition at 25 g/ha ([5]; Fallopia convolvulus, 480 h, POLCO, individual, use rate 25 g ai/ha, read-out: observed % activity 20 DAT) of 0%. For the same molecule, the inhibition at 50 g/ha ([5]; Fallopia convolvulus, 480 h, POLCO, individual, use rate 50 g ai/ha, read-out: observed % activity 20 DAT) was 0%, the inhibition at 25 g/ha [6, 12] was 60% and the inhibition at 50 g/ha [6, 13] was 70%. It also gave an inhibition at 25 g/ha ([6]; EPHHL, individual, use rate 25 g ai/ha, read-out: observed % activity 20 DAT) of 50%, an inhibition at 50 g/ha ([6]; EPHHL, individual, use rate 50 g ai/ha, read-out: observed % activity 20 DAT) of 60% and an inhibition at 25 g/ha [7, 12] of 65%. For the same molecule, the inhibition at 50 g/ha [7, 13] was 98%, the inhibition at 25 g/ha ([7]; COMBE, individual, use rate 25 g ai/ha, read-out: observed % activity 20 DAT) was 0% and the inhibition at 50 g/ha ([7]; COMBE, individual, use rate 50 g ai/ha, read-out: observed % activity 20 DAT) was 0%. It also gave an inhibition at 25 g/ha ([8]; use rate 25 g ai/ha) of 60%, an inhibition at 50 g/ha ([8]; use rate 50 g ai/ha) of 40% and an inhibition at 25 g/ha [9, 12] of 70%. The inhibition at 50 g/ha [9, 13] was 90%, the inhibition at 25 g/ha [10, 12] was 95% and the observed % activity ([11]; 25 g ai/ha, 20 DAT) was 55%. The inhibition at 25 g/ha ([11]; Sida rhombifolia, pre-emergence, 480 h, 25 g ai/ha, 20 DAT, read-out: observed % activity) was 60% and the inhibition at 50 g/ha ([11]; Sida rhombifolia, pre-emergence, 480 h, 50 g ai/ha, 20 DAT, read-out: observed % activity) was 85%.
For `Cc1nn(-c2cc(NS(C)(=O)=O)c(Cl)cc2Cl)c(=O)n1C(F)F` [Sulfentrazone, sulfentrazone], the inhibition at 6 g/ha ([2]; 6 g ai/ha) was 30%, the inhibition at 12 g/ha ([2]; 12 g ai/ha) was 60% and the inhibition at 6 g/ha [3, 14] was 40%. For the same molecule, the inhibition at 12 g/ha [3, 15] was 45%, the inhibition at 6 g/ha [4, 14] was 0% and the inhibition at 5 g/ha ([4]; GALAP, individual, use rate 5 g ai/ha, read-out: observed % activity 20 DAT) was 25%. The inhibition at 10 g/ha ([4]; GALAP, individual, use rate 10 g ai/ha, read-out: observed % activity 20 DAT) was 50%, the inhibition at 6 g/ha ([5]; Fallopia convolvulus, 480 h, 6 g ai/ha, 20 DAT, read-out: observed % activity) was 0% and the inhibition at 12 g/ha ([5]; Fallopia convolvulus, 480 h, 12 g ai/ha, 20 DAT, read-out: observed % activity) was 0%. The inhibition at 10 g/ha ([5]; Fallopia convolvulus, 480 h, POLCO, individual, use rate 10 g ai/ha, read-out: observed % activity 20 DAT) was 25%, the “observed % activity 20 DAT” value ([5]; POLCO, individual, use rate 5 g ai/ha) was 40% and the inhibition at 6 g/ha [7, 14] was 20%. For the same molecule, the inhibition at 12 g/ha [7, 15] was 45%, the inhibition at 10 g/ha ([7]; COMBE, individual, use rate 10 g ai/ha, read-out: observed % activity 20 DAT) was 15% and the inhibition at 5 g/ha ([8]; use rate 5 g ai/ha) was 20%. The inhibition at 10 g/ha ([8]; use rate 10 g ai/ha) was 30%, the inhibition at 12 g/ha [9, 15] was 98% and the inhibition at 5 g/ha ([9]; KCHSC, individual, use rate 5 g ai/ha, read-out: observed % activity 20 DAT) was 70%. The inhibition at 10 g/ha ([9]; KCHSC, individual, use rate 10 g ai/ha, read-out: observed % activity 20 DAT) was 65%, the inhibition at 6 g/ha [10, 14] was 20% and the inhibition at 12 g/ha [10, 15] was 45%. For the same molecule, the inhibition at 10 g/ha ([10]; ABUTH, individual, use rate 10 g ai/ha, read-out: observed % activity 20 DAT) was 25%, the inhibition at 6 g/ha ([11]; Sida rhombifolia, pre-emergence, 480 h, 6 g ai/ha, 20 DAT, read-out: observed % activity) was 20% and the inhibition at 10 g/ha ([11]; Sida rhombifolia, pre-emergence, 480 h, SIDRH, pre-emergence, individual, use rate 10 g ai/ha, read-out: observed % activity 20 DAT) was 30%.
